Measured values from patent US5601801A, “Radiolabelled angiotensin converting enzyme inhibitors” (Merck Frosst Canada, Inc., priority 1994, dated 1997).
Like-named read-outs stand apart in the source and are kept apart here.

Target: T1, angiotensin converting enzyme (ACE) (Oryctolagus cuniculus, UniProt P12822)
T1 construct: a slurry of 10 g of lyophilized rabbit lung powder (Pel-Freez); tissue Pel-Freez; host or cells: rabbit lung (lyophilized powder, buffer extract)
T1 sequence (P12822 34-1310): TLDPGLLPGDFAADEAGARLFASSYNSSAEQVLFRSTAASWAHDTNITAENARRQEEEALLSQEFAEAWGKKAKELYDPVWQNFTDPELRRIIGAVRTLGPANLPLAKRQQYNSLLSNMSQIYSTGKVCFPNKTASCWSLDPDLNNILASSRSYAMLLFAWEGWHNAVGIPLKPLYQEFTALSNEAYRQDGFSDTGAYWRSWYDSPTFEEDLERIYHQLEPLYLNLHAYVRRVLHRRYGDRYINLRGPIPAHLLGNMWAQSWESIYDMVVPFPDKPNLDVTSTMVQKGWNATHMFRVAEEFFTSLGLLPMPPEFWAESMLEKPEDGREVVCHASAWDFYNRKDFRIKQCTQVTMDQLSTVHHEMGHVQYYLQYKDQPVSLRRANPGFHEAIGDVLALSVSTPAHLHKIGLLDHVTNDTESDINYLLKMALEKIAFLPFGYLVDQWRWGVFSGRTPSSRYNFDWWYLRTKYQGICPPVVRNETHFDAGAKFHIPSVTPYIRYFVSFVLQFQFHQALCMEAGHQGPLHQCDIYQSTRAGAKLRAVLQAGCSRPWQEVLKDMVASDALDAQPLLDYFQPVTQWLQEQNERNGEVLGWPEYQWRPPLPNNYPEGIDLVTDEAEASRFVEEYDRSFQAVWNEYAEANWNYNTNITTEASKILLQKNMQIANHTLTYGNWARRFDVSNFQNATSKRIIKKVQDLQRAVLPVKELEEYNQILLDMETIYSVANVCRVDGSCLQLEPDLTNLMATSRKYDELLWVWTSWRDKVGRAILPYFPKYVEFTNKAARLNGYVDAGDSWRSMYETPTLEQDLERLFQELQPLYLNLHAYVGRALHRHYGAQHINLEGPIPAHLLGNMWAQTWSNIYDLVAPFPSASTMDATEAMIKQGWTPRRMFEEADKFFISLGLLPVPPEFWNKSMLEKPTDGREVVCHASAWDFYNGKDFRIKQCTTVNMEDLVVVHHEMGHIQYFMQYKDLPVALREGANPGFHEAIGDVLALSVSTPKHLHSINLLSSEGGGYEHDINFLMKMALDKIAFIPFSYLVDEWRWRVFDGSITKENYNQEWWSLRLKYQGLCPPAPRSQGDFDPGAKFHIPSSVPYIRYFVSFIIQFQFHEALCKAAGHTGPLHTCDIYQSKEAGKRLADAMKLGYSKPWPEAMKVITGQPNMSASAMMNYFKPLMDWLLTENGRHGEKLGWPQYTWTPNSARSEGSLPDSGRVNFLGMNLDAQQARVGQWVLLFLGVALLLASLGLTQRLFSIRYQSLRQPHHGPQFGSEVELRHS
Test: IC50 Assay (Cushman and Cheung; hippuryl-L-histidyl-L-leucine hydrolysis by rabbit lung powder extract)
Format: biochemical
Method: According to the assay of Cushman and Cheung Biochem. Pharmacol 20, 1637, (1971), a slurry of 10 g of lyophilized rabbit lung powder (Pel-Freez) and 100 mL of 50 mM potassium phosphate buffer, pH 8.3, was blended for three one minute intervals followed by centrifugation for 40 minutes at 17,500 rpm. The clear supernatant was assayed for protein by the modified Lowry test and the volume of the rabbit lung powder extract (RLPE) was adjusted with buffer, 100 mM phosphate buffer prepared to yield a pH of 8.3 in the presence of 300 mM NaCl, to give 10-20 mU of angiotensin converting enzyme (ACE) activity in a 100 μL volume. The assay was carried out in 13×100 mm disposable culture tubes, with each assay tube containing 100 μL RLPE, 50 μL of a 12.5 mM solution of hippuryl-L-histidyl-L-leucine (HHL) (Sigma) in a buffer and 100 μL of inhibitor solution made up in buffer. The enzyme is added last to initiate the reaction and the tubes are incubated at 37° C. for one hour. The assay is terminated by the addition of 250 μL of 1M HCl to each tube; the HCl is added before the enzyme in the zero-time control assays. To each tube is added 1.5 mL of ethyl acetate followed by vortex mixing for 15 seconds. After the tubes have been centrifuged at 2,500 rpm for 5 minutes, 1 mL of the ethyl acetate layer is transferred to a clean 12×75 mm disposable culture tube. The ethyl acetate was evaporated by heating at 90° C. in a water bath for 30 minutes. Addition of 1 mL of water to each tube followed by vortex mixing for 15 seconds redissolves the hippuric acid. […]

Structure (SMILES)	A228 ± SD (-log[MIBA] 7.246)	A228 ± SD (-log[MIBA] 8.246)	A228 ± SD (-log[MIBA] 9.246)	A228 ± SD (-log[MIBA] 10.246)	A228 ± SD (-log[MIBA] 11.246)	IC50 (rabbit lung ACE, HHL substrate, pH 8.3, 37° C., one hour, read-out: IC50)	IC50	A228 ± SD (-log[Lisin] 6.206)	A228 ± SD (-log[Lisin] 7.206)	A228 ± SD (-log[Lisin] 8.206)	A228 ± SD (-log[Lisin] 9.206)	A228 ± SD (-log[Lisin] 10.206)
O=C(NCCCC[C@H](N[C@@H](CCc1ccccc1)C(=O)O)C(=O)N1CCC[C@H]1C(=O)O)c1cccc(I)c1 [lisinopril MIBA]	0.025 ± 0.007	0.224 ± 0.016	1.196 ± 0.026	2.174 ± 0.047	2.360 ± 0.060	0.6 nM	–	–	–	–	–	–
NCCCC[C@H](N[C@@H](CCc1ccccc1)C(=O)O)C(=O)N1CCC[C@H]1C(=O)O [lisinopril, reference compound]	–	–	–	–	–	–	5.4 nM	0.029 ± 0.007	0.175 ± 0.007	0.946 ± 0.012	2.275 ± 0.031	2.371 ± 0.060
